Values after ≈ are worked out from the molar mass of the structure shown.
Key:
Type in all cases: functional, cell-based
[1] = tested on: A549; test: Antiproliferative activity against human A549 cells assessed as inhibition of cell growth incubated for 72 hrs by SRB assay; details: A549, 72 h
[2] = tested on: MCF7; test: Antiproliferative activity against human MCF7 cells assessed as inhibition of cell growth incubated for 72 hrs by SRB assay; details: MCF7, 72 h
[3] = tested on: K562; test: Antiproliferative activity against human K562 cells assessed as inhibition of cell growth by MTT assay
[4] = tested on: A549; test: Antiproliferative activity against human A549 cells assessed as inhibition of cell growth by MTT assay
[5] = tested on: HL-60; test: Antiproliferative activity against human HL-60 cells assessed as inhibition of cell growth incubated for 48 hrs by WST-1 assay; details: HL-60, 48 h
[6] = tested on: K562; test: Antiproliferative activity against human K562 cells assessed as inhibition of cell growth incubated for 48 hrs by WST-1 assay; details: K562, 48 h
[7] = tested on: MCF7; test: Antiproliferative activity against human MCF7 cells assessed as inhibition of cell growth incubated for 48 hrs by MTT assay; details: MCF7, 48 h
[8] = tested on: SW480; test: Antiproliferative activity against human SW480 cells assessed as inhibition of cell growth incubated for 48 hrs by MTT assay; details: SW480, 48 h
[9] = tested on: A549; test: Antiproliferative activity against human A549 cells assessed as inhibition of cell growth incubated for 48 hrs by MTT assay; details: A549, 48 h
[10] = tested on: HL-60; test: Antiproliferative activity against human HL-60 cells assessed as inhibition of cell growth incubated for 48 hrs by MTT assay; details: HL-60, 48 h
[11] = tested on: SMMC-7721; test: Antiproliferative activity against human SMMC-7721 cells assessed as inhibition of cell growth incubated for 48 hrs by MTT assay; details: SMMC-7721, 48 h
[12] = tested on: AGS; test: Antiproliferative activity against human AGS cells assessed as inhibition of cell growth incubated for 24 hrs by MTT assay
[13] = tested on: L1210; test: Antiproliferative activity against mouse L1210 cells assessed as inhibition of cell growth incubated for 24 hrs by MTT assay; details: L1210, 24 h

Which results are given for CC[C@@H]1CN(C)[C@H]2Cc3c([nH]c4ccccc34)[C@H](c3ccc4c5c([nH]c4c3)[C@@H]3C[C@@H]4C[C@H](CC)[C@@H]3N(CC5)[C@@H]4CC(C)=O)C[C@H]1[C@@H]2C(=O)OC?
IC50 [1]: < 10 µM; IC50 [2]: < 10 µM

Which IC50 [3] does the source give for O=C(NCC(=O)c1c[nH]c2ccccc12)NC(=O)c1c[nH]c2cc(O)ccc12 here?
The IC50 was greater than 90 µM.

And the IC50 [4]?
Its IC50 is greater than 90 µM.

With CCC(=O)[C@H](O)[C@@H]1CN(C=O)CCc2c([nH]c3ccccc23)[C@@](C(=O)OC)(c2cc3c(cc2OC)N(C)[C@H]2[C@@](O)(C(=O)OC)[C@H](OC(C)=O)[C@]4(CC)C=CCN5CC[C@]32[C@@H]54)C1 as the compound, how does the IC50 [5] read?
Its IC50 is greater than 100 µM.

And the IC50 [6]?
The IC50 was greater than 100 µM.

How did the IC50 [7] turn out when C/C=C1/CN2COC[C@]3(C(=O)OC)[C@@H]1C[C@@H](c1cccc4c5c([nH]c14)[C@]1(C(=O)OC)C[C@@H]4C[C@H](CC)[C@@H]1N(CC5)[C@@H]4CC(C)=O)c1[nH]c4ccccc4c1C[C@]23C was run?
The IC50 was 2.9 µM.

And the IC50 [8]?
The IC50 was 2.9 µM.

And the IC50 [9]?
The IC50 was 2.9 µM.

And the IC50 [10]?
Its IC50 is 2.9 µM.

What about the IC50 [11] of the same compound?
The IC50 was 2.9 µM.

Which results are given for C/C=C1/CN(C)[C@@]2(C)Cc3c([nH]c4ccccc34)[C@H](c3c(OC)ccc4c3NC3[C@@]4(O)CCN4C[C@H]5C[C@H](CC)[C@H]4[C@@]3(C(=O)OC)C5)C[C@H]1[C@]2(COC(C)=O)C(=O)OC (stereo partly specified)?
IC50 [7]: 2.9 µM; IC50 [8]: 2.9 µM; IC50 [9]: 2.9 µM; IC50 [10]: 2.9 µM; IC50 [11]: 2.9 µM

With CC[C@@H]1CN(C)[C@H]2Cc3c([nH]c4ccccc34)[C@H](c3c(OC)ccc4c5c([nH]c34)[C@]3(C(=O)OC)C[C@@H]4C[C@H](CC)[C@@H]3N(CC5)[C@@H]4CC(C)=O)C[C@H]1[C@@H]2C(=O)OC as the compound, how does the IC50 [1] read?
The IC50 was 10.9 µM.

And the IC50 [2]?
The IC50 was 10.9 µM.

CC[C@@H]1CN(C)[C@H]2Cc3c([nH]c4ccccc34)[C@H](c3cc4c5c([nH]c4cc3OC)[C@@]3(C(=O)OC)C[C@H]4C[C@@H](CC)[C@@H]3N(CC5)C4)C[C@H]1[C@@H]2C(=O)OC was tested. Which IC50 [1] did it give?
The IC50 was greater than 10 µM.

And the IC50 [2]?
The IC50 was less than 10 µM.

What does the source list for CC[C@@H]1CN(C)[C@H]2Cc3c([nH]c4ccccc34)[C@H](c3ccc4[nH]c5c(c4c3)CCN3C[C@@H]4C[C@@H](CC)[C@H]3[C@@H]5C4)C[C@H]1[C@@H]2C(=O)OC?
IC50 [1]: < 10 µM; IC50 [2]: < 10 µM

Which IC50 [3] does the source give for CC(=O)C[C@@H]1c2c([nH]c3ccccc23)[C@H](c2c[nH]c3ccccc23)[C@H]1C(C)=O here?
Its IC50 is 2.2 µM.

How did the IC50 [3] turn out when CO[C@@]1(C(=O)c2c[nH]c3ccccc23)N=C(c2c[nH]c3cc(Br)ccc23)C(=O)N1 was run?
Its IC50 is 24.2 µM.

And the IC50 [4]?
The IC50 was 24.2 µM.

With CC[C@@H]1CN(C)[C@H]2Cc3c([nH]c4ccccc34)[C@H](c3cc4[nH]c5c(c4cc3OC)CCN3[C@H](CC(C)=O)[C@H]4C[C@H](CC)[C@H]3[C@@]5(C(=O)OC)C4)C[C@H]1[C@@H]2C(=O)OC as the compound, how does the IC50 [1] read?
Its IC50 is greater than 10 µM.

What about the IC50 [2] of the same compound?
The IC50 was less than 10 µM.

Which results are given for CC[C@]12CN3CC[C@@]45C(=Nc6ccccc64)[C@@](C(=O)OC)(c4cc6c(cc4OC)N(C)[C@H]4[C@@](O)(C(=O)OC)[C@H](OC(C)=O)[C@]7(CC)C=CCN8CC[C@]64[C@@H]87)C[C@H]([C@H]1O2)[C@H]35?
IC50 [5]: 56.2 µM; IC50 [6]: 56.2 µM

How did the IC50 [1] turn out when C/C=C1/CN(C)[C@H]2Cc3c([nH]c4ccccc34)[C@H](c3ccc4[nH]c5c(c4c3)CCN3C[C@@H]4C[C@H](CC)[C@H]3[C@@H]5C4)C[C@H]1[C@@H]2C(=O)OC was run?
Its IC50 is less than 10 µM.

And the IC50 [2]?
Its IC50 is less than 10 µM.

Which results are given for O=C(NCC(=O)c1c[nH]c2cc(Br)ccc12)NC(=O)c1c[nH]c2cc(O)ccc12?
IC50 [3]: > 90 µM; IC50 [4]: > 90 µM

Which results are given for CC[C@]12CCCN3CCc4c(n(c5ccccc45)[C@@H](c4cc5c(cc4OC)NC4=C(C(=O)OC)C[C@]6(CC)CCCN7CC[C@@]45[C@@H]76)C1)[C@@H]32?
IC50 [7]: 3.24 µM; IC50 [8]: 3.24 µM; IC50 [9]: 3.24 µM; IC50 [10]: 3.24 µM; IC50 [11]: 3.24 µM

What does the source list for CO[C@@]1(C(=O)c2c[nH]c3ccccc23)N=C(c2c[nH]c3ccccc23)C(=O)N1?
IC50 [3]: 24.2 µM; IC50 [4]: 24.2 µM

For CC[C@@H]1CN(C)[C@H]2Cc3c([nH]c4ccccc34)[C@H](c3ccc4[nH]c5c(c4c3)CCN3[C@H](CC(C)=O)[C@@H]4C[C@@H](CC)[C@H]3[C@]5(C(=O)OC)C4)C[C@H]1[C@@H]2C(=O)OC, which IC50 [1] is on record?
Its IC50 is 10.9 µM.

And the IC50 [2]?
Its IC50 is 10.9 µM.

For O=C(c1nc(-c2c[nH]c3cc(Br)ccc23)c[nH]1)c1c[nH]c2cc(O)ccc12 [BROMOTOPSENTIN], which IC50 [12] is on record?
The IC50 was 1.1 µg/mL (≈ 2.61 µM).

What about the IC50 [13] of the same compound?
Its IC50 is 1.1 µg/mL (≈ 2.61 µM).

Which IC50 [12] does the source give for O=C1NC[C@H](c2c[nH]c3cc(Br)ccc23)N=C1c1c[nH]c2cc(Br)ccc12 [HAMACANTHIN B] here?
Its IC50 is 1.1 µg/mL (≈ 2.26 µM).

What about the IC50 [13] of the same compound?
Its IC50 is 1.1 µg/mL (≈ 2.26 µM).

Source: ChEMBL document CHEMBL5331060, “Bisindole natural products: A vital source for the development of new anticancer drugs” (Eur J Med Chem, 2022)
